Data as given in patent publication US11970509B1, “Water soluble nano-sized imine Ru(III) complex based on 4-aminobenzene sodium sulphonate for biomedical applications” (KING FAISAL UNIVERSITY, priority 2023, dated 2024).
In brackets after ≈: the same amount, converted by molar mass. One block for each compound: values may come before it.

Legend:
Breast cancer cells line = test: Cytotoxic activity, Sulfo-Rhodamine-B-stain (SRB), breast cancer cell line; conditions: Homo sapiens, 48 h
Aspergillus flavus = test: Antifungal activity, well diffusion method, Aspergillus flavus; type: cell-based
Method: To evaluate antimicrobial activity, the fungal strain (Aspergillus flavus), was used. These strains cultured in nutrient agar and Muller-Hinton medium. Fluconazole compounds were used as a standard drug for comparison.
Antifungal activities of the prepared water soluble nano-complex were studied against three fungal cultures using well diffusion method. The tested fungi were inoculated in Sabouraud dextrose broth medium (Hi-Media Mumbai) and incubated at 35° C. for 72 h and subsequently a suspension of about 1.60×10^4-6.00×10^4 c.f.u/ml was introduced agar plates and a sterile glass spreader was used for even distribution of the inoculum. The discs measuring 6 mm in diameter were prepared from Whatman No. 1 filter paper and sterilized by dry heat at 140° C. for 1 h. The sterile discs previously soaked in known concentration of the tested compounds were placed in Sabouraud dextrose Agar (SDA) plates. The plates were inverted and incubated at 35° C. for 7 days. The susceptibility was assessed on the basis of diameter of inhibition against albicans and non-albicans strain of fungi.

Escherichia coli(-ve) = test: Antimicrobial activity, agar well diffusion method, E. coli; type: cell-based
Method: To evaluate antimicrobial activity, the bacterial strain Escherichia coli(-ve), was used. These strains cultured in nutrient agar and Muller-Hinton medium. Ofloxacin compounds were used as a standard drug for comparison. The susceptibilities of such growth rate of microorganisms were measured in vitro by agar well diffusion method. The tested nano complex was dissolved in dimethylsulfoxide at different concentrations (10 and 20 mg/ml). 1 cm^3 of a 24 h broth culture containing 10^6 CFU/cm^3 was placed in sterile Petri-dishes. Molten nutrient agar (15 cm^3) maintained at 45° C. was then poured into the Petri-dishes and allowed to solidify. Then holes of 6 mm diameter were formed in the agar using a sterile cork borer and these holes were completely filled with the test solutions. The plates were incubated for 24 h at 37° C. After the incubation period, the zone of inhibition of each well was determined by measuring the zones of growth inhibition (mm) against the test microorganisms with zone reader (Hi Antibiotic zone scale). […] The measurements were made in triplicate for each compound and their average values are reported.

SMILES: COc1cccc2c1C(=O)c1c(O)c3c(c(O)c1C2=O)C[C@@](O)(C(=O)CO)C[C@@H]3O[C@H]1C[C@H](N)[C@H](O)[C@H](C)O1 [Doxorubicin, reference compound]
IC50 (Breast cancer cells line): 4 µg/mL (≈ 7.36 µM)

MIC (Aspergillus flavus): 1.75 µg/mL (≈ 5.71 µM)
SMILES: OC(Cn1cncn1)(Cn1cncn1)c1ccc(F)cc1F [Fluconazol, reference compound]
inhibition zone (Aspergillus flavus; well diffusion, 35° C. for 7 days): 28 mm

MIC (Escherichia coli(-ve); Escherichia coli): 2.5 µg/mL (≈ 6.92 µM)
SMILES: CC1COc2c(N3CCN(C)CC3)c(F)cc3c(=O)c(C(=O)O)cn1c23 (centres unmarked) [Ofloxacin, reference compound]
inhibition zone (Escherichia coli(-ve); agar well diffusion, 24 h at 37° C.): 38 mm
